Data taken from patent US8992933B2, “Methods for activating T cells and modulating an immune response” (New York University, priority 2011, dated 2015).

Experiments:
Format in all cases: cell-based, human
Klf2 = Klf2 mRNA by RT-qPCR in TM cells
Protocol: Peripheral Blood Mononuclear Cells (PBMCs) from healthy individuals (New York Blood Center, New York, N.Y.) were prepared using Ficoll-paque plus (GE Amersham, Uppsala, Sweden). Whole blood samples from rheumatoid arthritis patients were purchased from Bioreclamation (New York, N.Y.) and were processed similar to healthy donor blood. All healthy donor and patient samples were consented prior to purchase, were none-identifiable and approved by institutional human subjects board. CD4^+ T cells were isolated using Dynal CD4 Positive Isolation Kit (Invitrogen, Carlsbad, Calif.) directly from purified PBMCs and were >99% pure. […] TM cells were activated either by anti-CD3 and anti-CD28 (aCD3/aCD28) coated beads (1:4 beads:cells ratio) for 18-24 hours, or by Phorbol 12-myristate 13-acetate (PMA) and ionomycin for 4 hours and further FACS sorted based on CCR6 and IL-17 expression into CCR6^− IL-17^−, CCR6^+IL-17^+, or CCR6^+IL-17^− subsets (as determined by secretion assay labeling, see below). […]
Purified T cells (1×10^5) were snap frozen in liquid nitrogen for total RNA isolation. […] The extracted RNA was then reverse transcribed into cDNA and quantified using Taqman Cell to CT kit (Applied Biosystems, Carlsbad, Calif.). […] Data was acquired and analyzed on ABI 7500 sequence detection system. […]

CCR6+ IL-17- TM cells = experiment: IL-17 induction by cytokine culture of sorted, activated CCR6+IL-17- memory T cells (intracellular staining, FACS); details: cultured with the cytokine for 6 days; IL-23 in the absence of IL-2
Protocol: (§1) Peripheral Blood Mononuclear Cells (PBMCs) from healthy individuals (New York Blood Center, New York, N.Y.) were prepared using Ficoll-paque plus (GE Amersham, Uppsala, Sweden). Whole blood samples from rheumatoid arthritis patients were purchased from Bioreclamation (New York, N.Y.) and were processed similar to healthy donor blood. All healthy donor and patient samples were consented prior to purchase, were none-identifiable and approved by institutional human subjects board. CD4^+ T cells were isolated using Dynal CD4 Positive Isolation Kit (Invitrogen, Carlsbad, Calif.) directly from purified PBMCs and were >99% pure. CD4^+ T cells were sorted by FACS ARIA cell sorter (BD, San Jose, Calif.) into CD45RO^+ CD25^− memory T (TM) cells. TM cells were activated either by anti-CD3 and anti-CD28 (aCD3/aCD28) coated beads (1:4 beads:cells ratio) for 18-24 hours, or by Phorbol 12-myristate 13-acetate (PMA) and ionomycin for 4 hours and further FACS sorted based on CCR6 and IL-17 expression into CCR6^− IL-17^−, CCR6^+IL-17^+, or CCR6^+IL-17^− subsets (as determined by secretion assay labeling, see below). Sorted cells (>99% pure) were cultured in serum-free Xvivo-15 medium (Lonza, Wakersville, Md.) at 37° C. and 5% CO2 for 6-7 days prior to restimulation with PMA and ionomycin (see below). […] To determine the fold expansion, CCR6^+IL-17^+ or CCR6 IL-17^− subsets were labeled with CFSE (Molecular Probes, Eugene, Oreg.) or eFluor 670 (eBioscience, San Diego, Calif.), respectively, as previously described (Oswald-Richter, et al., PLoS Biol 2004; 2: E198). […] In the experiments using PI-3K signaling inhibitors, cells were treated with PI-3K specific inhibitor, LY294002 (EMD, Gibbstown, N.J.), or Akt specific inhibitor, AKTi-1/2 (EMD), for 2 days before PMA and Ionomycin restimulation.
Manufacturer's protocols (Miltenyi Biotec) for labeling human and mouse IL-17 secreting cells were followed. Briefly, activated T-cells were washed in cold buffer (PBS+0.5% BSA+2 mM EDTA) and labeled with IL-17 catch reagent for 5 minutes on ice. […]

CCR6- TM cells [1] = experiment: Cytokine expression in resting CCR6- TM cells cultured with IL-7; details: stimulated with IL-7
Protocol: (§2) Peripheral Blood Mononuclear Cells (PBMCs) from healthy individuals (New York Blood Center, New York, N.Y.) were prepared using Ficoll-paque plus (GE Amersham, Uppsala, Sweden). Whole blood samples from rheumatoid arthritis patients were purchased from Bioreclamation (New York, N.Y.) and were processed similar to healthy donor blood. All healthy donor and patient samples were consented prior to purchase, were none-identifiable and approved by institutional human subjects board. CD4^+ T cells were isolated using Dynal CD4 Positive Isolation Kit (Invitrogen, Carlsbad, Calif.) directly from purified PBMCs and were >99% pure. CD4^+ T cells were sorted by FACS ARIA cell sorter (BD, San Jose, Calif.) into CD45RO^+ CD25^− memory T (TM) cells. TM cells were activated either by anti-CD3 and anti-CD28 (aCD3/aCD28) coated beads (1:4 beads:cells ratio) for 18-24 hours, or by Phorbol 12-myristate 13-acetate (PMA) and ionomycin for 4 hours and further FACS sorted based on CCR6 and IL-17 expression into CCR6^− IL-17^−, CCR6^+IL-17^+, or CCR6^+IL-17^− subsets (as determined by secretion assay labeling, see below). Sorted cells (>99% pure) were cultured in serum-free Xvivo-15 medium (Lonza, Wakersville, Md.) at 37° C. and 5% CO2 for 6-7 days prior to restimulation with PMA and ionomycin (see below). […]

CCR6+ TM cells [2] = experiment: Cytokine gene expression by quantitative nuclease protection assay (qNPA); details: IL-7 stimulation
[3] = tested on: resting CCR6+CD45RO+CD25- TM cells; experiment: Cytokine expression in resting CCR6+ TM cells cultured with cytokines, no TCR stimulation (intracellular staining)
Protocol: as §1
Cells were stained as previously described (Oswald-Richter, et al., PLoS Pathogens 2007; 3: e58). For intracellular staining, T cell cultures were stimulated for 5 hours at 37° C. with PMA and Ionomycin and Golgistop (BD Biosciences). Stimulated cells were washed with PBS and stained with Fixable Viability Dye eFluor450 (eBioscience) to gate on live cells. Cells were then fixed and permeabilized by commercially available Foxp3 intracellular staining kit (eBioscience) or cytofix/cytoperm kit (BD Biosciences) as per manufacturer's protocol. Antibodies used for surface and intracellular staining included: CD45RO-FITC; CD25-PE; IFN-γ-FITC (clone 4S. B3), PE Cy7 or A700; IL-4-APC or PE; IL-17A (IL-17)-Pacific Blue (Clone BL168), FITC or Percp Cy5.5; IL-10-APC (Biolegend); IL-22-PE (R&D) or APC (eBioscience); IL-21-PE (clone 22URT1, eBioscience); FOXO1 rabbit monoclonal antibody; phospho-AKT (Ser473)-Alexa Fluor 488; Rabbit IgG isotype control-Alexa Fluor 488 (Cell Signaling, Danvers, Mass.); and CCR6-biotin (BD Biosciences). Secondary antibodies used were: Streptavidin-APC or PercpCy5.5 (BD Biosciences), Goat anti mouse-APC (BD Biosciences), anti rabbit-Alexa 647 (Molecular Probes). All data were acquired on LSRII instrument (BD Biosciences) using FACSDiva software. Data analyses were done using Flowjo software (Treestar Inc, Ashland, Oreg.). For phospho-Akt staining, Jurkat cells were fixed with BD Cytofix buffer (BD Biosciences) pre-warmed to 37° C. for 10 minutes. After spinning down, the cells were permeablilzed with ice-cold BD Phosflow Perm buffer III (BD Biosciences) on ice for 30 minutes and were stained with phospho-antibody.

CCR6- TM cells [4] = experiment: IL-17 induction by cytokine culture of sorted, activated CCR6-IL-17- memory T cells; details: cultured with the cytokine, restimulation
Protocol: as §2

TM cells = experiment: Cell viability under PI-3K/Akt inhibitor treatment; details: 1-10 μg/mL
Protocol: (§3) Cells were stained as previously described (Oswald-Richter, et al., PLoS Pathogens 2007; 3: e58). For intracellular staining, T cell cultures were stimulated for 5 hours at 37° C. with PMA and Ionomycin and Golgistop (BD Biosciences). Stimulated cells were washed with PBS and stained with Fixable Viability Dye eFluor450 (eBioscience) to gate on live cells. Cells were then fixed and permeabilized by commercially available Foxp3 intracellular staining kit (eBioscience) or cytofix/cytoperm kit (BD Biosciences) as per manufacturer's protocol. Antibodies used for surface and intracellular staining included: CD45RO-[…]3), PE Cy7 or A700; […] IL-17A (IL-17)-Pacific Blue (Clone BL168), FITC or Percp Cy5.5; […]) or APC (eBioscience); […] FOXO1 rabbit monoclonal antibody; phospho-AKT ([…])-Alexa Fluor 488; Rabbit IgG isotype control-Alexa Fluor 488 (Cell Signaling, Danvers, Mass.); and CCR6-biotin (BD Biosciences). Secondary antibodies used were: Streptavidin-APC or […]5.5 (BD Biosciences), Goat anti mouse-APC (BD Biosciences), anti rabbit-Alexa 647 (Molecular Probes). All data were acquired on LSRII instrument (BD Biosciences) using FACSDiva software. Data analyses were done using Flowjo software (Treestar Inc, Ashland, Oreg.). For phospho-Akt staining, Jurkat cells were fixed with BD Cytofix buffer (BD Biosciences) pre-warmed to 37° C. for 10 minutes. […]

Rorc and Foxp3 = Rorc and Foxp3 mRNA by RT-qPCR in CCR6+/- cells; details: IL-7 medium 7 days, then inhibitor for 2 days
Protocol: Peripheral Blood Mononuclear Cells (PBMCs) from healthy individuals (New York Blood Center, New York, N.Y.) were prepared using Ficoll-paque plus (GE Amersham, Uppsala, Sweden). Whole blood samples from rheumatoid arthritis patients were purchased from Bioreclamation (New York, N.Y.) and were processed similar to healthy donor blood. All healthy donor and patient samples were consented prior to purchase, were none-identifiable and approved by institutional human subjects board. […] Sorted cells (>99% pure) were cultured in serum-free Xvivo-15 medium (Lonza, Wakersville, Md.) at 37° C. and 5% CO2 for 6-7 days prior to restimulation with PMA and ionomycin (see below). […]). […] In the experiments using PI-3K signaling inhibitors, cells were treated with PI-3K specific inhibitor, LY294002 (EMD, Gibbstown, N.J.), or Akt specific inhibitor, AKTi-1/2 (EMD), for 2 days before PMA and Ionomycin restimulation. Purified T cells (1×10^5) were snap frozen in liquid nitrogen for total RNA isolation. […] The extracted RNA was then reverse transcribed into cDNA and quantified using Taqman Cell to CT kit (Applied Biosystems, Carlsbad, Calif.). […] Data was acquired and analyzed on ABI 7500 sequence detection system. Quantitative real-time PCR data was analyzed by normalizing Ct values of genes of interest to the Ct values of the housekeeping gene b-Actin.

CCR6+ TM cells [5] = experiment: PI-3K/Akt inhibitor treatment of IL-7-cultured CCR6+ TM cells, cytokine production after PMA and ionomycin
Protocol: Peripheral Blood Mononuclear Cells (PBMCs) from healthy individuals (New York Blood Center, New York, N.Y.) were prepared using Ficoll-paque plus (GE Amersham, Uppsala, Sweden). […] All healthy donor and patient samples were consented prior to purchase, were none-identifiable and approved by institutional human subjects board. CD4^+ T cells were isolated using Dynal CD4 Positive Isolation Kit (Invitrogen, Carlsbad, Calif.) directly from purified PBMCs and were >99% pure. CD4^+ T cells were sorted by FACS ARIA cell sorter (BD, San Jose, Calif.) into CD45RO^+ CD25^− memory T (TM) cells. TM cells were activated either by anti-CD3 and anti-CD28 (aCD3/aCD28) coated beads (1:4 beads:cells ratio) for 18-24 hours, or by Phorbol 12-myristate 13-acetate (PMA) and ionomycin for 4 hours and further FACS sorted based on CCR6 and IL-17 expression into CCR6^− IL-17^−, CCR6^+IL-17^+, or CCR6^+IL-17^− subsets (as determined by secretion assay labeling, see below). Sorted cells (>99% pure) were cultured in serum-free Xvivo-15 medium (Lonza, Wakersville, Md.) at 37° C. and 5% CO2 for 6-7 days prior to restimulation with PMA and ionomycin (see below). Culture conditions included: 10 U/mL recombinant human IL-2, (BD Biosciences, San Jose, Calif.), 20 ng/mL IL-7, 20 ng/mL IL-15, or 20 ng/mL IL-23 (all from R&D Systems, Minneapolis, Minn.). […] In the experiments using PI-3K signaling inhibitors, cells were treated with PI-3K specific inhibitor, LY294002 (EMD, Gibbstown, N.J.), or Akt specific inhibitor, AKTi-1/2 (EMD), for 2 days before PMA and Ionomycin restimulation.
Cells were stained as previously described (Oswald-Richter, et al., PLoS Pathogens 2007; 3: e58). For intracellular staining, T cell cultures were stimulated for 5 hours at 37° C. with PMA and Ionomycin and Golgistop (BD Biosciences). Stimulated cells were washed with PBS and stained with Fixable Viability Dye eFluor450 (eBioscience) to gate on live cells. Cells were then fixed and permeabilized by commercially available Foxp3 intracellular staining kit (eBioscience) or cytofix/cytoperm kit (BD Biosciences) as per manufacturer's protocol. Antibodies used for surface and intracellular staining included: CD45RO-FITC; CD25-PE; IFN-γ-FITC (clone 4S. B3), PE Cy7 or A700; IL-4-APC or PE; IL-17A (IL-17)-Pacific Blue (Clone BL168), FITC or Percp Cy5.5; IL-10-APC (Biolegend); IL-22-PE (R&D) or APC (eBioscience); IL-21-PE (clone 22URT1, eBioscience); FOXO1 rabbit monoclonal antibody; phospho-AKT (Ser473)-Alexa Fluor 488; Rabbit IgG isotype control-Alexa Fluor 488 (Cell Signaling, Danvers, Mass.); and CCR6-biotin (BD Biosciences). Secondary antibodies used were: Streptavidin-APC or PercpCy5.5 (BD Biosciences), Goat anti mouse-APC (BD Biosciences), anti rabbit-Alexa 647 (Molecular Probes). […]

Akt phosphorylation = experiment: Intracellular phospho-Akt (Ser473) staining
Protocol: as §3

[6] = one week in IL-7, then inhibitor for 48 hours

IL-7: γc-cytokine (R&D Systems)
Klf2 expression in resting CCR6+ TM cells (Klf2; stimulation with IL-7 alone): decreased
de novo IL-17 expression in CCR6+ IL-17- T cells (CCR6+ IL-17- TM cells): induced similar levels of IL-17 expression
IL-17 or IL-22 expression in CCR6- TM cells (CCR6- TM cells [1]): failed to express IL-17 or IL-22
Ccl20 expression (CCR6+ TM cells [2]): neither significantly induced
expression of non-Th17 related cytokines (Il2, Ifng, Tnf) (CCR6+ TM cells [2]): not influenced
expression of IL-21 ([3]; CCR6+ or CCR6- TM cells upon stimulation with IL-7): slightly reduced
enhancement of IL-17 expression compared to the same cells ex vivo (day 0) ([3]; IL-7 for 10 days): more than 3 fold
enhancement of IL-22 expression compared to the same cells ex vivo (day 0) ([3]; IL-7 for 10 days): more than 3 fold
increase of double cytokine-producing cells (IL-22 or IFNγ co-expressed with IL-17) ([3]; IL-7 stimulation): more than 5 fold
impact on IFNγ production ([3]; resting CCR6+ or CCR6- TM cells cultured with IL-7): almost no impact
IL-17 expression in CCR6- TM cells (CCR6- TM cells [4]): neither IL-7 nor IL-15 induced IL-17 expression

IL-4: another γc-cytokine
IL-17/IL-22 (Th17 cytokine) expression in resting CCR6+ TM cells ([3]; stimulation with the single cytokine): did not promote Th17 cytokine production

O=c1cc(N2CCOCC2)oc2c(-c3ccccc3)cccc12 [LY294002]
cell viability (TM cells): without adversely affecting cell viability

IL-15: γc-cytokine (R&D Systems)
de novo IL-17 expression in CCR6+ IL-17- T cells (CCR6+ IL-17- TM cells): induced similar levels of IL-17 expression
IL-17 expression in CCR6- TM cells (CCR6- TM cells [4]): neither IL-7 nor IL-15 induced IL-17 expression

O=c1[nH]c2ccccc2n1C1CCN(Cc2ccc(-c3nc4cc5nc[nH]c5cc4nc3-c3ccccc3)cc2)CC1 [AKTi-1/2]
Klf2 message expression in aCD3/aCD28-activated CCR6+ TM cells expanded in IL-2 (Klf2; IL-2 medium 2 weeks, inhibitor for 2 days): upregulates
Rorc and Foxp3 transcripts (Rorc and Foxp3): not affected
IL-17 and IL-22 production induced by IL-7 from CCR6+ TM cells (CCR6+ TM cells [5]; 5 μg/ml, Day 10): suppresses
expression of IFNγ (CCR6+ TM cells [5]; [6]): not affected
expression of IL-4 (CCR6+ TM cells [5]; [6]): less reduced
γc-mediated IL-17/IL-22 induction (CCR6+ TM cells [5]; one week in IL-7, then inhibitor for 48 hours, dose-dependent): repressed
cell viability (TM cells): without adversely affecting cell viability
Akt phosphorylation (Ser473) in Jurkat cells (Akt phosphorylation; Jurkat T cells treated for 30 minutes): Inhibition of Akt phosphorylation
cytokine-dependent phosphorylation of Akt (Akt phosphorylation; TM cells, 1-10 μg/mL): downregulated

B1: IL-23: cytokine (R&D Systems) (protein, UniProt Q9NPF7 20-189; P29460 23-328, looked up)
Interleukin-23 subunit alpha: RAVPGGSSPAWTQCQQLSQKLCTLAWSAHPLVGHMDLREEGDEETTNDVPHIQCGDGCDPQGLRDNSQFCLQRIHQGLIFYEKLLGSDIFTGEPSLLPDSPVGQLHASLLGLSQLLQPEGHHWETQQIPSLSPSQPWQRLLLRFKILRSLQAFVAVAARVFAHGAATLSP
Interleukin-12 subunit beta: IWELKKDVYVVELDWYPDAPGEMVVLTCDTPEEDGITWTLDQSSEVLGSGKTLTIQVKEFGDAGQYTCHKGGEVLSHSLLLLHKKEDGIWSTDILKDQKEPKNKTFLRCEAKNYSGRFTCWWLTTISTDLTFSVKSSRGSSDPQGVTCGAATLSAERVRGDNKEYEYSVECQEDSACPAAEESLPIEVMVDAVHKLKYENYTSSFFIRDIIKPDPPKNLQLKPLKNSRQVEVSWEYPDTWSTPHSYFSLTFCVQVQGKSKREKKDRVFTDKTSATVICRKNASISVRAQDRYYSSSWSEWASVPCS
de novo IL-17 expression in CCR6+ IL-17- T cells (CCR6+ IL-17- TM cells): did not influence IL-17 expression
synergy with IL-7 to further induce IL-17 or IL-22 expression ([3]; IL-7 (20 ng/ml)+IL-23 (20 ng/ml) for 10 days): did not significantly synergize
